Test results from article PMC4791210 (International immunopharmacology, 2015).

Experiments:
human neutrophils [1] = conditions: cited from earlier work; for Inhibition of fMLF-induced Ca2+ mobilization in human neutrophils / Inhibition of fMLF-induced Ca2+ flux in neutrophils: result in words
FPR1 [2] = target: T1, FPR1 (Homo sapiens, UniProt P21462); conditions: result in words; cited from earlier work
T1 sequence (P21462 1-350): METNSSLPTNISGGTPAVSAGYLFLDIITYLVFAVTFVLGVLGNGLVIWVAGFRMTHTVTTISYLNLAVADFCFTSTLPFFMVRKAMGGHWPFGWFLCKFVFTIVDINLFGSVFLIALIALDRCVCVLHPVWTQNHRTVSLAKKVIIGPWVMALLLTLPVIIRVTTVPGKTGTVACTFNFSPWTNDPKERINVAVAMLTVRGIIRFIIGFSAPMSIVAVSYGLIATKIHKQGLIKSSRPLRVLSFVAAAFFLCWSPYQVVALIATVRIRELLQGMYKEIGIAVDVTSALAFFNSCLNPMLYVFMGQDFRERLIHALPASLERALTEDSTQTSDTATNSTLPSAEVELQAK

[3] = system: fMLF-stimulated neutrophils; conditions: list of responses inhibited; ref per compound in References column of Table 1; cited from earlier work
FPR1 [4] = target: T1, FPR1; conditions: human neutrophils; cited from earlier work
monocytes = conditions: read-out: IC50, inhibition of fMLF-induced monocyte locomotion; cited from earlier work
FPR1 [5] = conditions: cited from earlier work
rat neutrophils = conditions: fMLF-stimulated rat neutrophils, cited from earlier work
[6] = system: fMLF-stimulated neutrophils; conditions: result in words; cited from earlier work
FPR1 [7] = target: T1, FPR1; experiment: Direct activation of Ca2+ flux in FPR1 transfected HL-60 cells; format: cell-based
FPR1 [8] = conditions: high concentrations; cited from earlier work
human neutrophils [9] = experiment: Direct activation of Ca2+ flux in human neutrophils; format: cell-based; conditions: Neutrophil, read-out: Human Neutrophils Activation (EC50, μM)
FPR2 = conditions: cited from earlier work
[10] = animal experiments; cited from earlier work
[11] = animal experiments; cited from earlier work; remark: listed apart in the source
human neutrophils [12] = conditions: result in words; no data shown; cited from earlier work
FPR1 [13] = target: T1, FPR1; conditions: cited from earlier work
FPR1 [14] = target: T1, FPR1; conditions: result in words; no data shown; cited from earlier work
FPR1 [15] = target: T1, FPR1; conditions: read-out: IC50, displacement of [3H]-fMLF; FPR1-transfected RBL cells; cited from earlier work
neutrophils = conditions: read-out: IC50, inhibition of fMLF-stimulated neutrophil degranulation; cited from earlier work
FPR1 [16] = conditions: read-out: IC50, blocking of fMLF binding to FPR1; cited from earlier work

Compound: O=c1c(-c2ccc(O)cc2)coc2cc(O)cc(O)c12 [genistein]
- Inhibition of fMLF-induced Ca2+ mobilization in human neutrophils (human neutrophils [1]): none and did not antagonize
- Inhibition of fMLF-induced Ca2+ flux in FPR1-HL60 cells (FPR1 [2]): did not antagonize

Compound: (+)-Episesamin
- fMLF-induced Responses Inhibited in Neutrophils [3]: O2^−· production, HNE release

Compound: Cc1cc2ccc3c(c2cc1O)CCC(=O)C3(C)C [Flueggrene A]
- fMLF-induced Responses Inhibited in Neutrophils [3]: O2^−· production, HNE release

Compound: COc1cc(O)c2c(=O)c(OC)c(-c3ccc(O)c(OC)c3)oc2c1 [MSF-2, 5-hydroxy-2-(4-hydroxy-3-methoxyphenyl)-3,7-dimethoxy-4H-chromen-4-one]
- Interference with fMLF binding (FPR1 [4]): did not interfere

Compound: O=c1c(-c2ccc(O)cc2)coc2cc(O)ccc12 [daidzein]
- Inhibition of fMLF-induced Ca2+ mobilization in human neutrophils (human neutrophils [1]): none

Compound: C/C(=C/Cc1c(O)cc2oc(C)cc(=O)c2c1O)CO [Cnidimol A]
- fMLF-induced Responses Inhibited in Neutrophils [3]: O2^−· production, HNE release

Compound: C=CCc1ccc(O)c(-c2cc(O)ccc2O)c1 [Randaiol]
- fMLF-induced Responses Inhibited in Neutrophils [3]: O2^−· production and HNE release

Compound: Aristolatams IIIa
- fMLF-induced Responses Inhibited in Neutrophils [3]: O2^−· production, HNE release

Compound: COC(=O)C(C)CCC[C@]1(C)CC[C@]2(O1)C(=O)C(C)=C(C)[C@@]2(O)C(C)=O (some centres unmarked) [Hirsutocospiro A]
- fMLF-induced Responses Inhibited in Neutrophils [3]: O2^−· production, HNE release

Compound: COc1ccc(CCN(C)C(=O)/C=C/c2ccc(O)cc2)cc1 [Ailanthamide]
- fMLF-induced Responses Inhibited in Neutrophils [3]: O2^−· production, HNE release

Compound: cyclized SRSRY: cyclized form of urokinase receptor-derived peptide Ser-Arg-Ser-Arg-Tyr (not fully specified; cyclized; printed: Ser-Arg-Ser-Arg-Tyr)
- IC50 (monocytes): 0.01 nM
- Binding of FITC-labeled fMLF to FPR1 transfected cells (FPR1 [5]): inhibited binding

Compound: COc1c(O)ccc2c1cnc1c3cc4c(cc3ccc21)OCO4 [Decarine]
- fMLF-induced Responses Inhibited in Neutrophils [3]: O2^−· production, HNE release

Compound: C=C(C)[C@@H](CC=C(C)C)C[C@@]12C[C@@H](CC=C(C)C)C(C)(C)[C@]3(C=CC(C)(C)OC3=C(C(=O)c3ccccc3)C1=O)C2=O [Garcimultiflorone B]
- fMLF-induced Responses Inhibited in Neutrophils [3]: O2^−· production, HNE release

Compound: C=C1[C@H]2[C@@H]([C@@H](C(C)C)C[C@@H]1O)[C@H]1O[C@@H]2C[C@](C)(O)[C@@H](OC(=O)Cc2ccccc2)CC[C@@]1(C)OC(=O)CCC [Klymollin M]
- fMLF-induced Responses Inhibited in Neutrophils [3]: O2^−· production, HNE release

Compound: CC1(C)CC[C@]2(C(=O)O)CC[C@]3(C)C(=CC[C@@H]4[C@@]5(C)CC[C@H](O)C(C)(C)[C@@H]5CC[C@]43C)[C@@H]2C1 [Oleanolic acid]
- fMLF-induced Responses Inhibited in Neutrophils [3]: O2^−· production, HNE release

Compound: Berryammone A
- fMLF-induced Responses Inhibited in Neutrophils [3]: O2^−· production, HNE release

Compound: CC[C@H](CC[C@@H](C)[C@H]1CC[C@H]2[C@@H]3CC(=O)C4=CC(=O)CC[C@]4(C)[C@H]3CC[C@]12C)C(C)C [stigmast-4-ene-3,6-dione]
- Concentrations that inhibited O2−· production (rat neutrophils): 30 to 100 µM

Compound: C=C(C)[C@@H]1CC[C@]2(C(=O)O)CC[C@]3(C)[C@H](CC[C@@H]4[C@@]5(C)CC[C@H](O)C(C)(C)[C@@H]5CC[C@]43C)[C@@H]12 [betulinic acid]
- Effect on fMLF-induced release of HNE [6]: did not affect

Compound: hecogenin
- Concentrations that inhibited O2−· production (rat neutrophils): 30 to 100 µM

Compound: C=C(C)C(O)Cc1c(O)ccc2ccc(=O)oc12 (centres unmarked) [Demethylauraptenol]
- fMLF-induced Responses Inhibited in Neutrophils [3]: O2^−· production, HNE release

Compound: CC[C@H](CC[C@@H](C)[C@H]1CC[C@H]2[C@@H]3CC(=O)C4CC(=O)CC[C@]4(C)[C@H]3CC[C@]12C)C(C)C (some centres unmarked) [stigmastane-3,6-dione]
- Inhibition of O2−· production (rat neutrophils; result in words): non-active

Compound: C[C@H](CCC(=O)O)[C@H]1CC[C@H]2[C@@H]3CC[C@@H]4C[C@H](O)CC[C@]4(C)[C@H]3C[C@H](O)[C@]12C [Deoxycholic acid (DCA), Deoxycholic acid]
- EC50 (FPR1 [7]): 40.9 ± 5.5 µM
- Concentrations that antagonize FPR1 and inhibit 3H-fMLF binding (FPR1 [8]): ≥ 100 µM
- EC50 (human neutrophils [9]): 49 ± 5.4 µM

Compound: cyclosporine H [CsH]
- Inhibitory effects on FPR2-mediated cellular functions (FPR2): did not exhibit any obvious inhibitory effects
- Effect on acute inflammatory response evoked by cigarette smoke [10]: attenuated
- Effect on fMLF-induced analgesia [11]: blocked

Compound: C[C@H](CCC(=O)NCCS(=O)(=O)O)[C@H]1CC[C@H]2[C@@H]3[C@@H](O)C[C@@H]4C[C@H](O)CC[C@]4(C)[C@H]3CC[C@]12C [tauroursodeoxycholic acid]
- IC50 (human neutrophils [1]; read-out: IC50, inhibition of fMLF-induced Ca2+ mobilization): ~500 µM

Compound: COc1cc(CCCc2c(OC)cc(O)c(OC)c2OC)ccc1O [Viscolin]
- Inhibition of fMLF-induced Ca2+ flux in neutrophils (human neutrophils [1]): did not inhibit

Compound: COc1ccc(-c2coc3cc(O)ccc3c2=O)cc1 [formononetin]
- Inhibition of fMLF-induced Ca2+ mobilization in human neutrophils (human neutrophils [1]): none

Compound: C=C(CO)[C@@H]1CC[C@]2(C)CC[C@]3(C)[C@H](CC[C@@H]4[C@@](C)(CC(=O)O)[C@H](C(C)(C)C(=O)O)CC[C@]43C)[C@@H]12 [Triterpene 17, 30-hydroxy-2,3-seco-lup-20(29)-ene-2,3-dioic acid]
- fMLF-induced Responses Inhibited in Neutrophils [3]: O2^−· production, HNE release

Compound: C=C(C)[C@@H]1CC[C@]2(C(=O)O)CC[C@]3(C)[C@H](CC[C@@H]4[C@@]5(C)CC[C@@H](O)C(C)(C)[C@@H]5CC[C@]43C)[C@@H]12 [Epibetulinic acid]
- fMLF-induced Responses Inhibited in Neutrophils [3]: O2^−· production

Compound: CC(=O)OCC(Cc1ccccc1)NC(=O)C(Cc1ccccc1)NC(=O)c1ccccc1 (centres unmarked) [Aurantiamide acetate, aurantiamide acetate]
- fMLF-induced Responses Inhibited in Neutrophils [3]: O2^−· production

Compound: Berryammone B
- fMLF-induced Responses Inhibited in Neutrophils [3]: O2^−· production, HNE release

Compound: COc1ccc(-c2coc3cc(O)cc(O)c3c2=O)cc1 [Biochanin A]
- Direct agonist activity in primary neutrophils (human neutrophils [12]): direct agonist activity
- Inhibition of fMLF-induced Ca2+ mobilization in human neutrophils (human neutrophils [1]): inhibited
- Inhibition of fMLF-induced Ca2+ flux in FPR1-HL60 cells (FPR1 [2]): inhibited
- Inhibition of binding of labeled ligand (WKYMVm-FITC) to FPR1-HL60 cells (FPR1 [13]): did not inhibit binding
- Direct agonist activity in FPR1-HL60 cells (FPR1 [14]): direct agonist activity

Compound: COc1c(O)c(OC)c2c(c1OC)O[C@H](c1ccccc1)CC2=O [isopedicin]
- Inhibition of fMLF-induced Ca2+ flux in neutrophils (human neutrophils [1]): did not inhibit

Compound: COc1c(C(=O)CCc2ccccc2)c(O)c(O)c2c1/C(=C/c1ccccc1)C(=O)O2 [bractelactone]
- Inhibition of fMLF-induced Ca2+ flux in neutrophils (human neutrophils [1]): did not inhibit

Compound: O=c1c(-c2ccccc2)coc2cc(O)ccc12 [7-hydroxyisoflavone]
- Inhibition of fMLF-induced Ca2+ mobilization in human neutrophils (human neutrophils [1]): none

Compound: cyclosporine A [CsA]
- Inhibitory effects on FPR2-mediated cellular functions (FPR2): did not exhibit any obvious inhibitory effects
- IC50 (FPR1 [15]): 1.8 µM

Compound: Lawsonaphthoate A
- fMLF-induced Responses Inhibited in Neutrophils [3]: O2^−· production, HNE release

Compound: COc1ccc(-c2coc3cc(O)c(OC)cc3c2=O)cc1 [afrormosin]
- Inhibition of fMLF-induced Ca2+ mobilization in human neutrophils (human neutrophils [1]): none
- IC50 (neutrophils): ~67 µM

Compound: CC(C)=CCc1c(O)ccc2ccc(=O)oc12 [Osthenol]
- fMLF-induced Responses Inhibited in Neutrophils [3]: O2^−· production, HNE release

Compound: CC(C)=CCOc1c2occc2cc2ccc(=O)oc12 [Imperatorin]
- EC50 (FPR1 [7]): 50.9 ± 4.7 µM
- fMLF-induced Responses Inhibited in Neutrophils [3]: O2^−· production
- EC50 (human neutrophils [9]): 31.1 ± 3.6 µM

Compound: COc1ccc(C[C@H]2COC(=O)[C@@H]2Cc2ccc(O)c(O)c2)cc1OC [Lignan PP-6, (2R, 3R)-2-(3′,4′-dihydroxybenzyl)-3-(3″,4″-dimethoxybenzyl)butyrolactone]
- IC50 (FPR1 [16]): ~1.5 µM

Compound: Lawsochylin A
- fMLF-induced Responses Inhibited in Neutrophils [3]: O2^−· production, HNE release

Compound: COC1=CC(=O)c2cc(-c3ccc(OC)c(O)c3)c3cc(O)c(OC)cc3c2C1=O [Pterolinus K]
- fMLF-induced Responses Inhibited in Neutrophils [3]: O2^−· production, HNE release

Compound: COc1c2ccoc2cc2oc(=O)ccc12 [Bergapten]
- fMLF-induced Responses Inhibited in Neutrophils [3]: O2^−· production, HNE release

Compound: COc1cc2oc(=O)ccc2c2c1C=CC(C)(C)O2 [Alloxanthoxyletin]
- fMLF-induced Responses Inhibited in Neutrophils [3]: O2^−· production, HNE release

Compound: CC1(C)C=Cc2cc3ccc(=O)oc3cc2O1 [Xanthyletin]
- fMLF-induced Responses Inhibited in Neutrophils [3]: O2^−· Production, HNE release
